The record followed here is article PMC4814262 (Cancer Science, 2016).

The assay concerns the target LAT1 (Homo sapiens, UniProt Q01650). The assay can be described thus: radiolabelled uptake in Xenopus oocytes. The format is cell-based. The conditions noted are these: Na+-free uptake buffer (choline-Cl), pH 7.5, room temperature, 15 min; labelled compound.

In general, Km refers to the substrate concentration at which the rate is half of its maximum.

Molecules are shown by their SMILES.

Sequence of LAT1 (Q01650 whole entry): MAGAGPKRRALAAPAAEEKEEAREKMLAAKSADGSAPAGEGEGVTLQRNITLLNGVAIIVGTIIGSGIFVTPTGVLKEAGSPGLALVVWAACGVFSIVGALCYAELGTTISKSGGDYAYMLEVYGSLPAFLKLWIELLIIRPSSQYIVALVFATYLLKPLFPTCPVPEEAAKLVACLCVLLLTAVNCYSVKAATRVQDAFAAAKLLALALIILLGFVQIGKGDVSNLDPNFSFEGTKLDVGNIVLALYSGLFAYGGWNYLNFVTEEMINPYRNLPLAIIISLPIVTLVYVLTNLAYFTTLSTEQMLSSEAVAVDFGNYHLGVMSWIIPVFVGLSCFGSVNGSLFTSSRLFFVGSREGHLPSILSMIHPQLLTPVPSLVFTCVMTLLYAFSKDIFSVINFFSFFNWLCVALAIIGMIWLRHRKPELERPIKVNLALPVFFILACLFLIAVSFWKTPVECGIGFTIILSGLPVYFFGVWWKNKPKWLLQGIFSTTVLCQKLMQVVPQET
Sequence of LAT1 (P08195 103-630 partner): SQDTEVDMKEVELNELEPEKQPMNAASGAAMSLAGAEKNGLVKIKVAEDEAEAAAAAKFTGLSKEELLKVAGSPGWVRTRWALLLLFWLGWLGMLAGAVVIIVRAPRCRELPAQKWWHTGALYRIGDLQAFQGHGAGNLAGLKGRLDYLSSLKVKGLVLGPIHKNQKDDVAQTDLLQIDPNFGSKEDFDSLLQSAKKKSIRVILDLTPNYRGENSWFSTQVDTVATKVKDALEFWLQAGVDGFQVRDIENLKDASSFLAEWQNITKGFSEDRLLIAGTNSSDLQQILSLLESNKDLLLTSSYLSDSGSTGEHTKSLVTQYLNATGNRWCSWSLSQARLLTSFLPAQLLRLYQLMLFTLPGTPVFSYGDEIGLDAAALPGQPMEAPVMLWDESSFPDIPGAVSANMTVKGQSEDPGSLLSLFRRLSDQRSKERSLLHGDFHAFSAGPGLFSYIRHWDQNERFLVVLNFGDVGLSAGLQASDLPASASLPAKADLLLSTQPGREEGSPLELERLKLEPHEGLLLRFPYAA

For `C[C@](N)(Cc1ccc(O)c(F)c1)C(=O)O` [FAMT, 3‐fluoro‐L‐α‐methyl[carboxyl‐^14C]tyrosine], the Michaelis constant (Km) was found to be 72.7 ± 11 µM.
